In ChEMBL document CHEMBL5356971, “Optimization of the Antibacterial Spectrum and the Developability Profile of the Novel-Class Natural Product Corramycin” (J Med Chem, 2023):
Activity calls are given as the source filed them. The calls are words filed in the database; no cut-off is given here.

How the values were obtained:
[1] = system: Klebsiella pneumoniae; assay: Antibacterial activity against Klebsiella pneumoniae ATCC 13883 assessed as reduction in microbial growth incubated for 20 to 22 hrs by CLSI based analysis; format: functional; conditions: time 20-22 hrs
[2] = system: Acinetobacter baumannii; assay: Antibacterial activity against Acinetobacter baumannii ATCC 19606 assessed as reduction in microbial growth incubated for 20 to 22 hrs by CLSI based analysis; format: functional; conditions: time 20-22 hrs
[3] = system: Escherichia coli; assay: Antibacterial activity against Escherichia coli ATCC 35218 assessed as reduction in microbial growth incubated for 20 to 22 hrs by CLSI based analysis; format: functional; conditions: time 20-22 hrs
[4] = system: Escherichia coli; assay: Antibacterial activity against wild type Escherichia coli ATCC 35218 assessed as reduction in microbial growth incubated for 20 to 22 hrs by CLSI based analysis; format: functional; conditions: time 20-22 hrs
[5] = Metabolic stability in mouse kidney assessed as parent compound remaining measured after 1 hrs by UPLC-MS analysis; format: ADME, tissue-based; conditions: read-out: Stability
[6] = Metabolic stability in mouse kidney assessed as parent compound remaining measured after 4 hrs by UPLC-MS analysis; format: ADME, tissue-based; conditions: read-out: Stability
[7] = system: Escherichia coli; assay: Antibacterial activity against Escherichia coli ATCC 35218 harboring SbmA assessed as reduction in microbial growth incubated for 20 to 22 hrs by CLSI based analysis; format: functional; conditions: time 20-22 hrs
[8] = Metabolic stability in mouse lung assessed as parent compound remaining measured after 4 hrs by UPLC-MS analysis; format: ADME, tissue-based; conditions: for remaining at 4 h: mouse lung, read-out: Stability
[9] = system: Acinetobacter baumannii; assay: Antibacterial activity against wild type Acinetobacter baumannii ATCC 19606 assessed as reduction in microbial growth incubated for 20 to 22 hrs by CLSI based analysis; format: functional; conditions: time 20-22 hrs
[10] = system: Klebsiella pneumoniae; assay: Antibacterial activity against Klebsiella pneumoniae ATCC 13883 harboring SbmA assessed as reduction in microbial growth incubated for 20 to 22 hrs by CLSI based analysis; format: functional; conditions: time 20-22 hrs
[11] = system: Klebsiella pneumoniae; assay: Antibacterial activity against Klebsiella pneumoniae ATCC 13883 infected in Swiss albino mouse model of neutropenic lung infection at 10 mg/kg, iv pretreated for 1 hr followed by bacterial infection and measured after 5 hr post infection; format: functional, organism-based; conditions: time 6.0 hrs
[12] = Metabolic stability in mouse lung assessed as parent compound remaining measured after 1 hrs by UPLC-MS analysis; format: ADME, tissue-based; conditions: for remaining at 1 h: mouse lung, read-out: Stability
[13] = system: Escherichia coli; assay: Antibacterial activity against Escherichia coli ATCC 25922 infected in Swiss albino mouse thigh infection model at 10 mg/kg, iv measured after 1 hr; format: functional, organism-based
[14] = system: Klebsiella pneumoniae; assay: Antibacterial activity against Klebsiella pneumoniae ATCC 13883 infected in Swiss albino mouse thigh infection model at 10 mg/kg, iv measured after 1 hr; format: functional, organism-based
[15] = system: Klebsiella pneumoniae; assay: Antibacterial activity against wild type Klebsiella pneumoniae ATCC 13883 assessed as reduction in microbial growth incubated for 20 to 22 hrs by CLSI based analysis; format: functional; conditions: time 20-22 hrs
[16] = system: Escherichia coli; assay: Antibacterial activity against Escherichia coli ATCC 35218 infected in Swiss albino mouse model of Septicaemia infection assessed as log reduction in Septicaemia in blood at 1 mg/kg , iv preincubated for 4 hrs followed by bacterial infection and measured after 4 hrs post infection; format: functional; conditions: time 8 hrs

Structure (SMILES)	MIC [1]	MIC [2]	MIC [3]	Stability ([8]; 4 h)	Stability ([12]; 1 h)	MIC [4]	remaining at 1 h [5]	remaining at 4 h [6]	MIC [7]	remaining at 4 h [8]	MIC [9]	MIC [10]	Activity [11]	remaining at 1 h [12]	Activity [13]	Activity [14]	MIC [15]	Activity [16]
CO[C@@H](CNC(=O)[C@H](NC(=O)[C@H](O)[C@H](C)O)[C@H](O)c1cncn1C)[C@H](O)[C@H](O)C(=O)N(C)[C@@H](Cc1ccccc1)C(=O)NCC(=O)N[C@H](C(=O)N[C@@H](CO)C(=O)N[C@H](C(=O)N[C@@H](C)C(=O)N[C@@H](CO)C(=O)O)C(C)(C)O)C(C)(C)O	64 µg/mL	> 32 µg/mL	8 µg/mL															
CO[C@@H](CNC(=O)[C@H](NC(=O)[C@H](O)[C@H](C)O)[C@H](O)c1cncn1C)[C@H](O)[C@H](O)C(=O)N(C)[C@@H](Cc1ccc(F)cc1)C(=O)NCC(=O)N[C@H](C(=O)N[C@@H](CO)C(=O)N[C@H](C(=O)N[C@H](C(=O)N[C@@H](CO)C(=O)N[C@@H](CN)C(=O)NCc1cc(=O)c(O)cn1O)C(C)(C)C)C(C)(C)O)C(C)(C)O						0.01 µg/mL	97%	95%	4 µg/mL	107%	0.5 µg/mL	> 32 µg/mL	Active	96%	Active	Active	0.12 µg/mL	
CO[C@@H](CNC(=O)[C@H](NC(=O)[C@H](O)[C@H](C)O)[C@H](O)c1cncn1C)[C@H](O)[C@H](O)C(=O)N(C)[C@@H](Cc1ccccc1)C(=O)N[C@@H](C)C(=O)N[C@H](C(=O)N[C@@H](CO)C(=O)N[C@H](C(=O)N[C@@H](CC(C)C)C(=O)N[C@@H](CO)C(=O)O)C(C)(C)O)C(C)(C)O	> 32 µg/mL	> 32 µg/mL	8 µg/mL															
CO[C@@H](CNC(=O)[C@H](NC(=O)[C@H](O)[C@H](C)O)[C@H](O)c1cncn1C)[C@H](O)[C@H](O)C(=O)N(C)[C@@H](Cc1ccccc1)C(=O)NCC(=O)N[C@H](C(=O)N[C@@H](CO)C(=O)N[C@H](C(=O)N[C@H](C(=O)N[C@@H](CO)C(=O)N[C@H](CCC(=O)NCc1cc(=O)c(O)cn1O)C(=O)O)C(C)(C)C)C(C)(C)O)C(C)(C)O						< 0.01 µg/mL	100%	67%	1 µg/mL	77%	0.5 µg/mL	32 µg/mL		89%			0.03 µg/mL	
CO[C@@H](CNC(=O)[C@H](NC(=O)[C@H](O)[C@H](C)O)[C@H](O)c1cncn1C)[C@H](O)[C@H](O)C(=O)N(C)[C@@H](Cc1ccccc1)C(=O)NCC(=O)N[C@H](C(=O)N[C@@H](CO)C(=O)N[C@H](C(=O)N[C@@H](CC(C)C)C(=O)N[C@@H](CO)C(=O)N[C@@H](CCC(=O)NCc1cc(=O)c(O)cn1O)C(=O)O)C(C)(C)O)C(C)(C)O						0.03 µg/mL	22%	0%	0.12 µg/mL	0%	0.5 µg/mL	8 µg/mL		1%			0.25 µg/mL	
CO[C@@H](CNC(=O)[C@H](NC(=O)[C@H](O)[C@H](C)O)[C@H](O)c1cncn1C)[C@H](O)[C@H](O)C(=O)N(C)[C@@H](Cc1ccccc1)C(=O)N[C@@H](C)C(=O)N[C@H](C(=O)N[C@@H](CO)C(=O)N[C@H](C(=O)N[C@H](C(=O)N[C@@H](CO)C(=O)NCc1cc(=O)c(O)cn1O)C(C)(C)C)C(C)(C)O)C(C)(C)O						0.06 µg/mL	85%	75%	1 µg/mL	85%	1 µg/mL	> 32 µg/mL		91%			1 µg/mL	
CO[C@@H](CNC(=O)[C@H](NC(=O)[C@H](O)[C@H](C)O)[C@H](O)c1cncn1C)[C@H](O)[C@H](O)C(=O)N(C)[C@@H](Cc1ccc(F)cc1)C(=O)NCC(=O)N[C@H](C(=O)N[C@@H](CO)C(=O)N[C@H](C(=O)N[C@H](C(=O)N[C@@H](CCC(=O)NCc1cc(=O)c(O)cn1O)C(=O)O)C(C)(C)C)C(C)(C)O)C(C)(C)O						0.01 µg/mL	92%	101%	0.25 µg/mL	86%	0.25 µg/mL	> 32 µg/mL		101%			0.12 µg/mL	
CO[C@@H](CNC(=O)[C@H](NC(=O)[C@H](O)[C@H](C)O)[C@H](O)c1cncn1C)[C@H](O)[C@H](O)C(=O)N(C)[C@@H](Cc1ccc(F)cc1)C(=O)NCC(=O)N[C@H](C(=O)N[C@@H](CO)C(=O)N[C@H](C(=O)N[C@H](C(=O)N[C@@H](CO)C(=O)NCc1cc(=O)c(O)cn1O)C(C)(C)C)C(C)(C)O)C(C)(C)O						< 0.01 µg/mL	44%	28%	2 µg/mL	54%	0.5 µg/mL	> 32 µg/mL		81%			0.125 µg/mL	-5.6 log10CFU
CO[C@@H](CNC(=O)[C@H](NC(=O)[C@H](O)[C@H](C)O)[C@H](O)c1cncn1C)[C@H](O)[C@H](O)C(=O)N(C)[C@@H](Cc1ccccc1)C(=O)NCC(=O)N[C@H](C(=O)N[C@@H](CO)C(=O)N[C@H](C(=O)N[C@H](C(=O)N[C@@H](CO)C(=O)N[C@@H](CN)C(=O)NCc1cc(=O)c(O)cn1O)C(C)(C)C)C(C)(C)O)C(C)(C)O						0.02 µg/mL	93%	83%	4 µg/mL	75%	0.25 µg/mL	> 32 µg/mL		87%			0.25 µg/mL	
CO[C@@H](CNC(=O)[C@H](N)[C@H](O)c1cncn1C)[C@H](O)[C@H](O)C(=O)N(C)[C@@H](Cc1ccccc1)C(=O)NCC(=O)N[C@H](C(=O)N[C@@H](CO)C(=O)N[C@H](C(=O)N[C@@H](CC(C)C)C(=O)N[C@@H](CO)C(=O)O)C(C)(C)O)C(C)(C)O	> 64 µg/mL	> 32 µg/mL	> 64 µg/mL															

Second part, led by results:

MIC [1]	MIC [2]	MIC [3]	Stability ([8]; 4 h)	Stability ([12]; 1 h)	Structure (SMILES)	MIC [4]	remaining at 1 h [5]	remaining at 4 h [6]	MIC [7]	remaining at 4 h [8]	MIC [9]	MIC [10]	Activity [11]	remaining at 1 h [12]	Activity [13]	Activity [14]	MIC [15]	Activity [16]
> 32 µg/mL	> 32 µg/mL	> 32 µg/mL			CO[C@@H](CNC(=O)[C@H](NC(=O)[C@H](O)[C@H](C)O)[C@H](O)c1cncn1C)[C@H](O)[C@H](O)C(=O)N(C)[C@@H](Cc1ccccc1)C(=O)NCC(=O)N[C@@H](C)C(=O)N[C@@H](CO)C(=O)N[C@H](C(=O)N[C@@H](CC(C)C)C(=O)N[C@@H](CO)C(=O)O)C(C)(C)O													
64 µg/mL	> 32 µg/mL	32 µg/mL			CO[C@@H](CNC(=O)[C@H](NC(=O)[C@H](O)[C@H](C)O)[C@H](O)c1cncn1C)[C@H](O)[C@H](O)C(=O)N(C)[C@@H](Cc1ccccc1)C(=O)NCC(=O)N[C@H](C(=O)N[C@@H](CO)C(=O)N[C@@H](C)C(=O)N[C@@H](CC(C)C)C(=O)N[C@@H](CO)C(=O)O)C(C)(C)O													
0.5 µg/mL	> 32 µg/mL	0.5 µg/mL			CO[C@@H](CNC(=O)[C@H](NC(=O)[C@H](O)[C@H](C)O)[C@H](O)c1cncn1C)[C@H](O)[C@H](O)C(=O)N(C)[C@@H](Cc1ccc(F)cc1)C(=O)NCC(=O)N[C@H](C(=O)N[C@@H](CO)C(=O)N[C@H](C(=O)N[C@H](C(=O)N[C@@H](CO)C(=O)O)C(C)(C)C)C(C)(C)O)C(C)(C)O		109%	109%		84%				89%				
16 µg/mL	> 32 µg/mL	4 µg/mL			CO[C@@H](CNC(=O)[C@H](NC(=O)[C@H](O)[C@H](C)O)[C@H](O)c1cncn1C)[C@H](O)[C@H](O)C(=O)N(C)[C@@H](Cc1ccccc1)C(=O)NCC(=O)N[C@H](C(=O)N[C@@H](CO)C(=O)N[C@H](C(=O)N[C@@H](CC(C)C)C(=O)N[C@@H](C)C(=O)O)C(C)(C)O)C(C)(C)O													
> 32 µg/mL	> 32 µg/mL	4 µg/mL			CO[C@@H](CNC(=O)[C@H](NC(=O)[C@H](O)[C@H](C)O)[C@H](O)c1cncn1C)[C@H](O)[C@H](O)C(=O)N(C)[C@@H](Cc1ccccc1)C(=O)NCC(=O)N[C@H](C(=O)N[C@@H](C)C(=O)N[C@H](C(=O)N[C@@H](CC(C)C)C(=O)N[C@@H](CO)C(=O)O)C(C)(C)O)C(C)(C)O													
0.25 µg/mL	> 8 µg/mL	0.125 µg/mL	138%	127%	CO[C@@H](CNC(=O)[C@H](NC(=O)[C@H](O)[C@H](C)O)[C@H](O)c1cncn1C)[C@H](O)[C@H](O)C(=O)N(C)[C@@H](Cc1ccc(F)cc1)C(=O)NCC(=O)N[C@H](C(=O)N[C@@H](CO)C(=O)N[C@H](C(=O)N[C@H](C(=O)N[C@@H](CO)C(=O)NCCN)C(C)(C)C)C(C)(C)O)C(C)(C)O		105%	92%										-5.6 log10CFU
